Test results published in patent US9096543B2, “Nuclear transport modulators and uses thereof” (Karyopharm Therapeutics Inc., priority 2012, dated 2015).
“Also recorded” adds a separate entry of the source. Values belong to the compound of their own block, whether it stands above or below them.

Legend:
[1] = tested on: cytokines GRO/KC, IFNγ, IL-1B, IL-6, IL-10, IL-12p70 and TNFa; assay: Plasma cytokine expression after BCCI injury (Luminex); assay type: in vivo, rats; details: 6 mg/kg
Method: The expression level of several cytokines in plasma harvested from rats in each treatment group was measured. The samples were received frozen and stored at −80° C. On the day of the experiment, the samples were thawed, diluted four-fold, and analyzed for cytokine expression on a Luminex platform. The samples were analyzed for the cytokines GRO/KC, IFNγ, IL-1B, IL-6, IL-10, IL-12p70 and TNFa, using a multipliex kit manufactured by Millipore. […] The biggest change was in IL-10.

CCI brain injury = assay: Brain injury assessment after CCI (visual inspection, NeuN cell density, immunofluorescence); assay type: in vivo, rats; details: for cell-to-gray matter (CG) area coefficient, compared to sham: NeuN labeling
Method: Quantitative measures of cell density were collected from anti-NeuN immunolabeled subsections from approximately 2-3 mm anterior to bregma. Regions of interest (ROIs) were drawn (blind to experimental condition) around Layers IV-VI in the cortical region adjacent to the injury site in CCI-treated animals or in the equivalent zone (dorsal cortex) in sham animals. An ROI of similar area was also evaluated in a ventral cortical region of the same section. Cell identification was performed using the cell counting module of Keyence BZ-II Analyzer software. […] The CCI-induced reduction in CG coefficient was mitigated by treatment with Compound 1 in the ventral cortex (−3% compared to sham; p=0.09). Although the effect of Compound 1 versus vehicle treatment in the ventral cortex is not statistically significant, it is anticipated that this effect would breach statistical significance in a larger study. No effect of Compound 1 was detected in the dorsal cortical region (−32% compared to sham) immediately adjacent to the injury site. The difference in the observed effect of Compound 1 on the ventral region versus the dorsal region may be a threshold effect related to the degree of injury, which was inversely related to the distance from the injury site. Thus, the damage to the dorsal cortical region could be too severe to be rescued by Compound 1 under these conditions.
Immunofluorescence was performed to evaluate the impact of TBI on several pathways of immune response, and to determine if Compound 1 might be mediating its neuroprotective effects via one or more of those pathways. Semi-quantitative measures of secondary injury responses were examined using immunofluorescent labeling for anti-Rat IgG (an indicator of blood-brain barrier (BBB) permeability), and TNFα (an indicator of neural inflammation). All markers were imaged at 20× magnification in the areas of the cortex surrounding the injury site in adjacent subsections within 300 μm to those used for the NeuN labeling assessments. For each label, a target ROI was outlined within Layers IV-VI adjacent to the injury site (or an equivalent region of dorsal cortex for sham animals), and a reference ROI was collected from the same laminae in ventral cortex. Normalized fluorescence intensity was assessed in each of the two ROIs. For all labels, the ventral cortex reference site was determined not to be different between groups (p>0.5); therefore, the percent target to reference value (IF) was determined.

CRM1 = biological target: T1, CRM1 (Homo sapiens, UniProt O14980); assay: RevGFP assay: inhibition of CRM1 mediated nuclear export; assay type: cell-based; details: U2OS-RevGFP cells, ~1 hr with compound; read-out: Rev Export [IC50]
T1 construct: endogenous in cells; host or cells: U2OS-RevGFP cells
T1 sequence (O14980 whole entry): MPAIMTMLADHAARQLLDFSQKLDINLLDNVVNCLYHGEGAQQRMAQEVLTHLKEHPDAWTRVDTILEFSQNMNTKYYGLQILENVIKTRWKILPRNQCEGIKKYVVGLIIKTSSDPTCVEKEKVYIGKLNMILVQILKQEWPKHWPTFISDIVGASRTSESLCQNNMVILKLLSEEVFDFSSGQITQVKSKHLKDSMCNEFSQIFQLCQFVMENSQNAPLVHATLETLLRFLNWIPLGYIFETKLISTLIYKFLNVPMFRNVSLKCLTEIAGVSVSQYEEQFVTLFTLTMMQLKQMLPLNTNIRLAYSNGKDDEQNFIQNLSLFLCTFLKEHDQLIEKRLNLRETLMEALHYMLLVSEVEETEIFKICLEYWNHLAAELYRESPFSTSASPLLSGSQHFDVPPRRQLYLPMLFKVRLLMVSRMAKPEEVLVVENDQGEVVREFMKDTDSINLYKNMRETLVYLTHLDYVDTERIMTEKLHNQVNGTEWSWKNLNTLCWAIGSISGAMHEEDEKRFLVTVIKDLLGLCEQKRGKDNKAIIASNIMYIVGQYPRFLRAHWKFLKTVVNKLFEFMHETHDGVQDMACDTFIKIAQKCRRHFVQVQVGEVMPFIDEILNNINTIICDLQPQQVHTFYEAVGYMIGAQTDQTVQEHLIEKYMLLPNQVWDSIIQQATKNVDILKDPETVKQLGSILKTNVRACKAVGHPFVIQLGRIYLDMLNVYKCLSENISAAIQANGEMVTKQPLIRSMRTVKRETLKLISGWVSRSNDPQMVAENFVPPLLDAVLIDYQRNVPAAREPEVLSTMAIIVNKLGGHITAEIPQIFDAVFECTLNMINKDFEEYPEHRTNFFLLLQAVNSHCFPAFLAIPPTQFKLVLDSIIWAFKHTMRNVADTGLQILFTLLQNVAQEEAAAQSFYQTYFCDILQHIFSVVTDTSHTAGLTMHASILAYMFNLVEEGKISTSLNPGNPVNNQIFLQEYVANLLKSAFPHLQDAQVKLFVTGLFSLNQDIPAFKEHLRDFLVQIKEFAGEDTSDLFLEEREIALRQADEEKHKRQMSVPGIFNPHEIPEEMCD
Method: The inhibition of CRM1 mediated nuclear export by compounds of the invention was determined. The inhibitory activity of compounds for the CRM1 protein was determined in the RevGFP assay.
Experimental protocol: Rev is a protein from human immunodeficiency virus type 1 (HIV-1) and contains a nuclear export signal (NES) in its C-terminal domain and a nuclear localization signal (NLS) in its N-terminal domain. Nuclear export of Rev protein is dependent on the classical NES/CRM1 pathway (Neville et al, 1997, Kau et al, 2003). Nuclear accumulation of Rev is observed in cells treated with specific inhibitors of CRM1, such as LMB (Kau et al, 2003). In this assay, U2OS-RevGFP cells are seeded onto clear-bottom, black, 384-well plates the day before the experiment. Compounds are serially diluted 1:2 starting from 40 μM in a separate 384-well plate in DMEM, and then transferred onto cells. Cells are incubated with compound for ˜1 hr before fixation with 3.7% formaldehyde and nuclei staining with Hoechst 33258. The amount of GFP in cell nuclei was measured and compound IC50s were determined (Kau et al, 2003).

IMQ-induced psoriasis = assay: Imiquimod (IMQ)-induced dermal inflammation/psoriasis model (Study 2); assay type: in vivo, BALB/c mice; details: Compound 2 2.5 mg/kg
Method: Forty (40) male BALB/c mice (Biological E Limited, Hyderabad (CPCSEA registration number: 36/99/CPCSEA)) were divided into four (4) groups consisting of ten (10) mice each. Animals were randomized based on their body weight. The groups were designated as Group-I (Nave), Group-II (IMQ; vehicle (PEG 400 and HPBCD)), Group-III (IMQ; Compound 2 (2.5 mg/kg)) and […] (IMQ; cyclophosphamide (10 mg/kg)).
A small area on the dorsum of each mouse was shaved, ensuring that these areas were of equal size/area. Psoriasis was induced in Groups II to IV by topical application of 50 mg of IMQ cream daily from Day 1 to Day 6 on the dorsum of the animals. On Day 1 and Day 2 of the study, four hours after topical application of IMQ, Compound 2 or positive control (cyclophosphamide) or vehicle were administered to animals in pertinent groups. Of note, animals in Group II and Group III were subjected to subcutaneous injections, whereas animals in Group IV received oral administration. The Compound 2, vehicle and cyclophosphamide treatment was terminated on Day 2. These groups of animals were maintained on daily IMQ treatments until Day 6. On Day 7, the psoriasis-induced animals were re-randomized into 3 groups consisting of 10 animals each based on Cumulative Disease Activity Index (CDAI). From Day 7 to Day 9, animals received vehicle or positive control or Compound 2. Of note, on these days animals were not treated with IMQ. From Day 10 to Day 14, the animals were treated alternatively with IMQ (Days 10, 12 and 14), or vehicle, positive control or Compound 2 (Days 11, 13).
All animals were observed daily for a period of […] for gross observations, body weight and feed and water intake. On Days 1 and 2, scorings of erythema, scaling, folding and thickening of skin were recorded 2 hours after administration of vehicle/positive control/test compounds, and on Days 3 to 14 scorings were recorded 4 hours after IMQ application, or administration of positive control, vehicle or Compound 2.
Vehicle was prepared by dissolving 40 mg of HPBCD in 70.0 mL of distilled water. Compound 2 was prepared by dissolving 3.59 mg in 0.5% PVP and 0.5% Pluronic. Cyclophosphamide was prepared by dissolving 500 mg of CMC in 100 mL distilled water.
The experimental results shown in Table 10 are expressed as mean±SEM. Data was assessed using one-way ANOVA, and post hoc analysis was performed using Dunnett's test.

Compound: CC(C)(C)C(=O)NNC(=O)/C=C\n1cnc(-c2cc(C(F)(F)F)cc(C(F)(F)F)c2)n1 [Compound 1, (Z)-3-(3-(3,5-bis(trifluoromethyl)phenyl)-1H-1,2,4-triazol-1-yl)-N′-pivaloylacrylohydrazide]
plasma IL-10 compared to vehicle-treated control group [1]: reduced IL-10 | qualitative visual inspection of whole brains (damage to dorsal-medial cortical tissue) (CCI brain injury; CCI + Compound 1 6 mg/kg): damage ranging from moderate to minimal | cell-to-gray matter (CG) area coefficient, compared to sham (CCI brain injury; dorsal cortical region adjacent to injury site, CCI control −45%): −32% | secondary injury responses (TNFα immunopositive cells, anti-Rat IgG immunofluorescence) (CCI brain injury; tissue surrounding the injury site): largely absent; also recorded: reduces secondary injury responses | cell-to-gray matter (CG) area coefficient, compared to sham (CCI brain injury; ventral cortex, p=0.09 vs vehicle, CCI control −30%): −3%

IC50 (CRM1): < 1000 nM
Compound: O=C(/C=C\n1cnc(-c2cc(C(F)(F)F)cc(C(F)(F)F)c2)n1)NNC(=O)CN1CCOCC1 [Compound 2, (Z)-3-(3-(3,5-bis(trifluoromethyl)phenyl)-1H-1,2,4-triazol-1-yl)-N′-(2-morpholinoacetyl)acrylohydrazide]
body weight, food consumption and water intake (IMQ-induced psoriasis): without greatly impacting the consumption of food or water | rate of reduction of disease activity index compared to vehicle (IMQ-induced psoriasis; 2.5 mg/kg): significantly greater than that observed in animals treated with vehicle; also recorded: diminished IMQ-induced disease manifestation
